By EC50 is commonly meant the concentration that produces a half-maximal response. As usually defined, the solubility is how much of the substance goes into solution per volume.

Experimental findings from patent US8722849B2, “Polypeptides” (Novo Nordisk A/S, priority 2011, dated 2014) are described below.

Like-named read-outs stand apart in the source and are kept apart here. Starred links: 1 amine or outer side, 2 acyl side, 3 side chain; linkers in the order of their positions; H or OH if unused. Positions of bridges follow the written chain, without caps; N, C: chain ends. Residues, ends and D or L forms follow the SMILES beside them. *: point of attachment. C20 diacid = O=C(O)CCCCCCCCCCCCCCCCCCC(=O)*; γGlu = O=C(O)[C@H](CCC(=O)[*:2])N[*:1]

Series [1] addresses T1, human amylin receptor (amylin 3(a) receptor: human calcitonin receptor + RAMP-3) (Homo sapiens, UniProt O60896+P30988).
T1 construct: expressed in transfected cells; host or cells: BHK570
T1 sequence (P30988 25-474): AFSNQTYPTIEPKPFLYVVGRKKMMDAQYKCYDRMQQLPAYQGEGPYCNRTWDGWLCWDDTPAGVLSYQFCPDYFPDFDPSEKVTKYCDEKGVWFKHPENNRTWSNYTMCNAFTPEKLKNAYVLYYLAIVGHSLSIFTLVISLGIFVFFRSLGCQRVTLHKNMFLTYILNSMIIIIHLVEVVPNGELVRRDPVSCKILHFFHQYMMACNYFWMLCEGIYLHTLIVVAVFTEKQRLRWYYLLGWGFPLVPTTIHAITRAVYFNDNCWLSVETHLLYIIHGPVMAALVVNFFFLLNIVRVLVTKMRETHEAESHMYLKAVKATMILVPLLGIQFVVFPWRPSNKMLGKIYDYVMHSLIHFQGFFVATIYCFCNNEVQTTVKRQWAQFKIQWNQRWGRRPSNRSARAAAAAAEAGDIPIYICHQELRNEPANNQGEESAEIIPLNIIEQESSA
T1 sequence (O60896 24-148 partner): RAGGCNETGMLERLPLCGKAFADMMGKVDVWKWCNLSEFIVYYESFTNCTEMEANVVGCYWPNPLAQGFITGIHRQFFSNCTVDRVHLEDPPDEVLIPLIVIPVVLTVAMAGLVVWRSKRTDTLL
The series can be described thus: Assay (II)a functional CRE-luciferase assay, human amylin receptor. It is filed as cell-based. To be noted: Table 2; BHK amylin 3(a)-receptor/CRE-luc cells.

The nature of series [2]: Assay (IV) determination of solubility. It is filed as physicochemical. The method in brief: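 Polypeptide in water (~500 nmol/ml) mixed 1:1 with 100 mM glycylglycine (pH 3.0–5.0) or bistrispropane (pH 6.0–8.0) buffers. Held 18 hours at room temperature, then centrifuged. Polypeptide remaining in solution quantified by HPLC.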
The target in series [3] is T2, human calcitonin receptor (Homo sapiens, UniProt P30988).
T2 construct: expressed in transfected cells; host or cells: BHK570
T2 sequence (P30988 25-474): T1 sequence (P30988 25-474)
As to the kind of experiment: Assay (II)a functional CRE-luciferase assay, human calcitonin receptor. It is filed as cell-based. To be noted: Table 7; human calcitonin (CTa) receptor.

[4] abbreviates: bistrispropane buffer, pH 6, pH 6.0, read-out: Solubility pH 6.0.
[5] abbreviates: bistrispropane buffer, pH 6.5, pH 6.5, read-out: Solubility pH 6.5.
Where [6] appears, read: bistrispropane buffer, pH 7, pH 7.0, 18 hours at room temperature, Table 3, read-out: Solubility pH 7.0.
Where [7] appears, read: bistrispropane buffer, pH 7, pH 7.0, Table 8, read-out: Solubility pH 7.0.
The mark [8] stands for this setting: bistrispropane buffer, pH 7, pH 7.0, Table 9, read-out: Solubility pH 7.0.
Setting [9] is: bistrispropane buffer, pH 7, pH 7.0, read-out: Solubility pH 7.0.
The mark [10] stands for this setting: bistrispropane buffer, pH 7.5, pH 7.5, Table 9, read-out: Solubility pH 7.5.
Where [11] appears, read: bistrispropane buffer, pH 7.5, pH 7.5, read-out: Solubility pH 7.5.
The mark [12] stands for this setting: bistrispropane buffer, pH 8, pH 8.0, read-out: Solubility pH 8.0.
The mark [13] stands for this setting: glycylglycine buffer, pH 3, pH 3.0, read-out: Solubility pH 3.0.
[14] abbreviates: glycylglycine buffer, pH 4, pH 4.0, 18 hours at room temperature, Table 2, read-out: Solubility pH 4.0.
[15] abbreviates: glycylglycine buffer, pH 4, pH 4.0, read-out: Solubility pH 4.0.
Setting [16] is: glycylglycine buffer, pH 5, pH 5.0, read-out: Solubility pH 5.0.

Take `CC[C@H](C)[C@H](NC(=O)[C@@H]1CCCN1C(=O)CNC(=O)[C@H](Cc1ccccc1)NC(=O)[C@H](CC(N)=O)NC(=O)[C@H](CC(N)=O)NC(=O)[C@H](CO)NC(=O)[C@H](CO)NC(=O)[C@H](Cc1c[nH]cn1)NC(=O)[C@H](CCCNC(=N)N)NC(=O)[C@H](CC(C)C)NC(=O)[C@H](Cc1ccccc1)NC(=O)[C@H](CCC(=O)O)NC(=O)[C@H](C)NC(=O)[C@H](CC(C)C)NC(=O)[C@H](CCCNC(=N)N)NC(=O)[C@H](CCC(N)=O)NC(=O)[C@@H](NC(=O)[C@H](C)NC(=O)[C@@H]1CSSC[C@H](NC(=O)[C@H](Cc2c[nH]cn2)NC(=O)CNC(=O)CC[C@H](NC(=O)CCCCCCCCCCCCCCCCCCC(=O)O)C(=O)O)C(=O)N[C@@H](CC(N)=O)C(=O)N[C@@H]([C@@H](C)O)C(=O)N[C@@H](C)C(=O)N[C@@H]([C@@H](C)O)C(=O)N1)[C@@H](C)O)C(=O)N[C@@H](CC(C)C)C(=O)N1CCC[C@H]1C(=O)N1CCC[C@H]1C(=O)N[C@H](C(=O)N[C@@H](CC(N)=O)C(=O)N[C@H](C(=O)NCC(=O)N[C@@H](CO)C(=O)N[C@@H](CC(N)=O)C(=O)N[C@H](C(=O)N1CCC[C@H]1C(N)=O)[C@@H](C)O)C(C)C)[C@@H](C)O` [Example 89, N-alpha-[(S)-4-Carboxy-4-(19-carboxynonadecanoylamino)butyryl]-Gly-[His1,Glu14,Arg17,Pro37]-pramlintide] ({C20 diacid-γGlu}-GHCNTATCATQRLAEFLRHSSNNFGPILPPTNVGSNTP-NH2; disulfide 3-8 (inferred)): the EC50 in series [1] was found to be 25.5 pM; in series [3], 39.5 pM. In addition, the solubility at 18 h in series [2] (setting [4]), in series [2] (setting [5]), in series [2] (setting [6]), in series [2] (setting [7]), in series [2] (setting [8]) and in series [2] (setting [9]) was > 200 µM each time. Moreover, the solubility at 18 h in series [2] (setting [10]), in series [2] (setting [11]), in series [2] (setting [12]), in series [2] (setting [13]), in series [2] (setting [14]) and in series [2] (setting [15]) was > 200 µM each time. Further, the solubility at 18 h in series [2] (setting [16]) was > 200 µM.

For the compound `CC[C@H](C)[C@H](NC(=O)[C@@H]1CCCN1C(=O)CNC(=O)[C@H](Cc1ccccc1)NC(=O)[C@H](CC(N)=O)NC(=O)[C@H](CC(N)=O)NC(=O)[C@H](CO)NC(=O)[C@H](CO)NC(=O)[C@H](Cc1c[nH]cn1)NC(=O)[C@H](CCCNC(=N)N)NC(=O)[C@H](CC(C)C)NC(=O)[C@H](Cc1ccccc1)NC(=O)[C@H](CCC(=O)O)NC(=O)[C@H](C)NC(=O)[C@H](CC(C)C)NC(=O)[C@H](CCCNC(=N)N)NC(=O)[C@H](CCC(N)=O)NC(=O)[C@@H](NC(=O)[C@H](C)NC(=O)[C@@H]1CSSC[C@H](NC(=O)[C@H](Cc2c[nH]cn2)NC(=O)CC[C@H](NC(=O)CCCCCCCCCCCCCCCCCCC(=O)O)C(=O)O)C(=O)N[C@@H](CC(N)=O)C(=O)N[C@@H]([C@@H](C)O)C(=O)N[C@@H](C)C(=O)N[C@@H]([C@@H](C)O)C(=O)N1)[C@@H](C)O)C(=O)N[C@@H](CC(C)C)C(=O)N1CCC[C@H]1C(=O)N1CCC[C@H]1C(=O)N[C@H](C(=O)N[C@@H](CC(N)=O)C(=O)N[C@H](C(=O)NCC(=O)N[C@@H](CO)C(=O)N[C@@H](CC(N)=O)C(=O)N[C@H](C(=O)N1CCC[C@H]1C(N)=O)[C@@H](C)O)C(C)C)[C@@H](C)O` [Example 90, N-alpha-[(S)-4-Carboxy-4-(19-carboxynonadecanoylamino)butyryl]-[His1,Glu14,Arg17,Pro37]-pramlintide] ({C20 diacid-γGlu}-HCNTATCATQRLAEFLRHSSNNFGPILPPTNVGSNTP-NH2; disulfide 2-7 (inferred); C-terminus assumed), the EC50 in series [1] is 32.5 pM; in series [3] it was 47.5 pM. In addition, the solubility at 18 h in series [2] (setting [4]), in series [2] (setting [5]), in series [2] (setting [6]), in series [2] (setting [7]), in series [2] (setting [8]) and in series [2] (setting [9]) was > 200 µM each time. For the same compound, the solubility at 18 h in series [2] (setting [10]), in series [2] (setting [11]), in series [2] (setting [12]), in series [2] (setting [13]), in series [2] (setting [14]) and in series [2] (setting [15]) was > 200 µM in each case. In addition, the solubility at 18 h in series [2] (setting [16]) was > 200 µM.
